According to patent US20230146455A1, “TREATMENT OF INFLAMMATORY DISEASES WITH PEPTIDES AND PHARMACEUTICAL COMPOSITIONS” (Yuyu Pharma, Inc., priority 2020, published 2023):
Several values for one entry are separate records, joined by “and”; a condition that tells them apart may be missing. Equal values may be shown once. Where a SMILES comes first, the peptide text is derived from it. [ ]: non-standard residue; d: D form. Hyp = O=C(O)[C@@H]1C[C@@H](O)CN1

Assays:
[1] = tested on: CCL4/MIP-1 beta; test: Example 8 main study Luminex, LPS hPBMCs: CCL4/MIP-1 beta; assay type: cell-based, human
Method: (§1) Human PBMCs were pretreated with YY-101, YDE-011, YDE-043 or reference compound; Xiidra® at various concentration (ranging from […] to 500 nM) for 2 h before stimulation. An equal volume of 0.5% DMSO was used as a vehicle control. Then, the cells were treated with LPS at 5 ug/ml, which was selected based on the pilot study. The supernatants from treated cells were harvested at 24 h and placed in a 96 well for Luminex cytokine & chemokine profiling using a Luminex 200 multiplex assay (Luminex; R&D system, USA).
(§2) The main study arm with triplicate wells per group in a 24-well plate: • 1. Blank • 2. PBMC: 0.5% DMSO • 3. PBMC+LPS (5 ug/ml) • 4. PBMC+YY-101 500 nM • 5. PBMC+YY-101 50 nM • 6. PBMC+YY-101 5 nM • 7. PBMC+YY-101 0.5 nM • 8. PBMC+LPS (5 ug/ml)+Xiidra® 500 nM • 9. PBMC+LPS (5 ug/ml)+Xiidra® 50 nM • 10. PBMC+LPS (5 ug/ml)+Xiidra® 5 nM • 11. PBMC+LPS (5 ug/ml)+Xiidra® 0.5 nM • 12. PBMC+LPS (5 ug/ml)+Xiidra® 0.05 nM • 13. PBMC+LPS (5 ug/ml)+Xiidra® 0.005 nM • 14. PBMC+LPS (5 ug/ml)+YY-101 500 nM • 15. PBMC+LPS (5 ug/ml)+YY-101 50 nM • 16. PBMC+LPS (5 ug/ml)+YY-101 5 nM • 17. PBMC+LPS (5 ug/ml)+YY-101 0.5 nM • 18. PBMC+LPS (5 ug/ml)+YY-101 0.05 nM • 19. PBMC+LPS (5 ug/ml)+YY-101 0.005 nM • 20. PBMC+LPS (5 ug/ml)+YDE-011 500 nM • 21. PBMC+LPS (5 ug/ml)+YDE-011 50 nM • 22. PBMC+LPS (5 ug/ml)+YDE-011 5 nM • 23. PBMC+LPS (5 ug/ml)+YDE-011 0.5 nM • 24. PBMC+LPS (5 ug/ml)+YDE-011 0.05 nM • 25. PBMC+LPS (5 ug/ml)+YDE-011 0.005 nM • 26. PBMC+LPS (5 ug/ml)+YDE-043 500 nM • 27. PBMC+LPS (5 ug/ml)+YDE-043 50 nM • 28. PBMC+LPS (5 ug/ml)+YDE-043 5 nM • 29. PBMC+LPS (5 ug/ml)+YDE-043 0.5 nM • 30. PBMC+LPS (5 ug/ml)+YDE-043 0.05 nM • 31. PBMC+LPS (5 ug/ml)+YDE-043 0.005 nM
(§3) Multiplex assay was used to measure 30 cytokines and chemokines. The 1:200 diluted cell supernatant and serial dilution of the standard were dispensed into a 96 well plate at 50 ul/well. Then, the pre-mixed cocktail of antibody-coated magnetic beads was dispensed at 50 ul/well and incubated at room temperature for 2 h in a horizontal orbital microplate shaker at 800±500 rpm. The beads were washed using a magnetic device to prevent loss. The biotin-antibody was dispensed in 50 ul of each well and incubated at room temperature for 1 h in a shaker at 800±500 rpm. After washing, streptavidin-PE was added at 50 ul/well and incubated at room temperature for 30 min in a shaker under the same conditions. Finally, after washing, wash buffer (100 ul/well) was added to the plate and incubated in a shaker for 2 min. The Luminex™ 200 setting were set according to the manufacturer's protocol. The data was calculated with a standard five-parameter logistic nonlinear regression analysis of the data (xPonent software 4.2, USA). Results were presented as concentration (ng/ml or pg/ml).

[2] = tested on: Leptin; test: Example 8 main study Luminex, LPS hPBMCs: Leptin; assay type: cell-based, human
Method: as §1, §2, §3

[3] = PBMC + LPS(5 ug/ml) + test article 0.005 nM, Mean
[4] = PBMC + LPS(5 ug/ml) + test article 0.005 nM, single replicates
[5] = PBMC + LPS(5 ug/ml) + test article 0.05 nM, Mean
[6] = PBMC + LPS(5 ug/ml) + test article 0.05 nM, single replicates
[7] = PBMC + LPS(5 ug/ml) + test article 0.5 nM, Mean
[8] = PBMC + LPS(5 ug/ml) + test article 0.5 nM, single replicates
[9] = PBMC + LPS(5 ug/ml) + test article 5 nM, Mean
[10] = PBMC + LPS(5 ug/ml) + test article 5 nM, single replicates
[11] = PBMC + LPS(5 ug/ml) + test article 50 nM, Mean
[12] = PBMC + LPS(5 ug/ml) + test article 50 nM, single replicates
[13] = PBMC + LPS(5 ug/ml) + test article 500 nM, Mean
[14] = PBMC + LPS(5 ug/ml) + test article 500 nM, single replicates
[15] = PBMC + test article 0.5 nM, no LPS, single replicates
[16] = PBMC + test article 5 nM, no LPS, single replicates
[17] = PBMC + test article 0.05 uM, no LPS, single replicates
[18] = PBMC + test article 50 nM, no LPS, single replicates
[19] = PBMC + test article 500 nM, no LPS, single replicates
[20] = PBMC + LPS(5 ug/ml), test article 0.005 nM
[21] = PBMC + LPS(5 ug/ml), test article 0.05 nM
[22] = PBMC + LPS(5 ug/ml), test article 0.5 nM
[23] = PBMC + LPS(5 ug/ml), test article 5 nM
[24] = PBMC + LPS(5 ug/ml), test article 50 nM
[25] = PBMC + LPS(5 ug/ml), test article 500 nM
[26] = PBMC without LPS, test article 0.5 nM
[27] = PBMC without LPS, test article 5 nM
[28] = PBMC without LPS, test article 0.05 uM
[29] = PBMC without LPS, test article 50 nM
[30] = PBMC without LPS, test article 500 nM

SMILES: CC(C)C[C@H](NC(=O)CNC(=O)[C@H](CC(=O)O)NC(=O)[C@H](CCC(N)=O)NC(=O)CNC(=O)[C@@H]1C[C@@H](O)CN1)C(=O)N[C@@H](C)C(=O)NCC(=O)N1CCC[C@H]1C(=O)N[C@@H](CCCCN)C(=O)O [YY-101] (H-[Hyp]GQDGLAGPK-OH; N-terminus and C-terminus assumed)
- CCL4/MIP-1 beta Concentration [1, 3]: 21677.4 pg/mL
- CCL4/MIP-1 beta MFI [1, 3]: 12.7
- CCL4/MIP-1 beta Concentration [1, 4]: 25629.7 pg/ml and 19701.2 pg/ml (2×)
- CCL4/MIP-1 beta MFI [1, 4]: 14.0 and 12.0 (2×)
- CCL4/MIP-1 beta Concentration [1, 5]: 21011.4 pg/mL
- CCL4/MIP-1 beta MFI [1, 5]: 12.5
- CCL4/MIP-1 beta Concentration [1, 6]: 25629.7 pg/mL and 17703.4 pg/mL and 19701.2 pg/mL
- CCL4/MIP-1 beta MFI [1, 6]: 14.0 and 11.5 and 12.0
- CCL4/MIP-1 beta Concentration [1, 7]: 21011.4 pg/mL
- CCL4/MIP-1 beta MFI [1, 7]: 12.5
- CCL4/MIP-1 beta Concentration [1, 8]: 17703.4 pg/mL and 25629.7 pg/mL and 19701.2 pg/mL
- CCL4/MIP-1 beta MFI [1, 8]: 11.5 and 14.0 and 12.0
- CCL4/MIP-1 beta Concentration [1, 9]: 16072.8 pg/mL
- CCL4/MIP-1 beta MFI [1, 9]: 11.2
- CCL4/MIP-1 beta Concentration [1, 10]: 17703.4 pg/ml and 15257.5 pg/ml (2×)
- CCL4/MIP-1 beta MFI [1, 10]: 11.5 and 11.0 (2×)
- CCL4/MIP-1 beta Concentration [1, 11]: 16738.7 pg/mL
- CCL4/MIP-1 beta MFI [1, 11]: 11.3
- CCL4/MIP-1 beta Concentration [1, 12]: 15257.5 pg/ml (2×) and 19701.2 pg/ml
- CCL4/MIP-1 beta MFI [1, 12]: 11.0 (2×) and 12.0
- CCL4/MIP-1 beta Concentration [1, 13]: 18220.0 pg/mL
- CCL4/MIP-1 beta MFI [1, 13]: 11.7
- CCL4/MIP-1 beta Concentration [1, 14]: 15257.5 pg/ml and 19701.2 pg/ml (2×)
- CCL4/MIP-1 beta MFI [1, 14]: 11.0 and 12.0 (2×)
- CCL4/MIP-1 beta MFI ([1]; PBMC + test article 0.5 nM, no LPS, Mean): 6.0
- CCL4/MIP-1 beta Concentration [1, 15]: <148.02 pg/mL
- CCL4/MIP-1 beta MFI [1, 15]: 6.0
- CCL4/MIP-1 beta MFI ([1]; PBMC + test article 5 nM, no LPS, Mean): 6.5
- CCL4/MIP-1 beta Concentration [1, 16]: <148.02 pg/mL
- CCL4/MIP-1 beta MFI [1, 16]: 7.0 and 6.0
- CCL4/MIP-1 beta MFI ([1]; PBMC + test article 0.05 uM, no LPS, Mean): 5.5
- CCL4/MIP-1 beta Concentration [1, 17]: <148.02 pg/mL
- CCL4/MIP-1 beta MFI [1, 17]: 6.0 and 5.0
- CCL4/MIP-1 beta MFI ([1]; PBMC + test article 50 nM, no LPS, Mean): 7.5
- CCL4/MIP-1 beta Concentration [1, 18]: <148.02 pg/mL
- CCL4/MIP-1 beta MFI [1, 18]: 8.0 and 7.0
- CCL4/MIP-1 beta MFI ([1]; PBMC + test article 500 nM, no LPS, Mean): 6.5
- CCL4/MIP-1 beta Concentration [1, 19]: <148.02 pg/mL
- CCL4/MIP-1 beta MFI [1, 19]: 6.0 and 7.0
- LPS-induced CCL-4 (in words) ([1]; at as low as 5 μM, LPS 5 ug/mL 24 hrs): significantly reduced
- Leptin Concentration (pg/ml), Mean [2, 20]: 16686.7 pg/mL
- Leptin Concentration (pg/ml), single replicates [2, 20]: 19789.4 pg/ml (2×) and 10481.4 pg/ml
- Leptin Concentration (pg/ml), Mean [2, 21]: 16746.9 pg/mL
- Leptin Concentration (pg/ml), single replicates [2, 21]: 17222.7 pg/ml (2×) and 15795.3 pg/ml
- Leptin Concentration (pg/ml), Mean [2, 22]: 16226.8 pg/mL
- Leptin Concentration (pg/ml), single replicates [2, 22]: 17222.7 pg/ml (2×) and 14234.9 pg/ml
- Leptin Concentration (pg/ml), Mean [2, 23]: 21157.1 pg/mL
- Leptin Concentration (pg/ml), single replicates [2, 23]: 22079.2 pg/mL and 17222.7 pg/mL and 24169.3 pg/mL
- Leptin Concentration (pg/ml), Mean [2, 24]: 15230.8 pg/mL
- Leptin Concentration (pg/ml), single replicates [2, 24]: 17222.7 pg/ml and 14234.9 pg/ml (2×)
- Leptin Concentration (pg/ml), Mean [2, 25]: 18933.8 pg/mL
- Leptin Concentration (pg/ml), single replicates [2, 25]: 19789.4 pg/ml (2×) and 17222.7 pg/ml
- Leptin Concentration (pg/ml), Mean [2, 26]: 15728.8 pg/mL
- Leptin Concentration (pg/ml), single replicates [2, 26]: 14234.9 pg/mL and 17222.7 pg/mL
- Leptin Concentration (pg/ml), Mean [2, 27]: 19092.9 pg/mL
- Leptin Concentration (pg/ml), single replicates [2, 27]: 17222.7 pg/mL and 20963.1 pg/mL
- Leptin Concentration (pg/ml), Mean [2, 28]: 18506.0 pg/mL
- Leptin Concentration (pg/ml), single replicates [2, 28]: 19789.4 pg/mL and 17222.7 pg/mL
- Leptin Concentration (pg/ml), Mean [2, 29]: 24092.8 pg/mL
- Leptin Concentration (pg/ml), single replicates [2, 29]: 26106.3 pg/mL and 22079.2 pg/mL
- Leptin Concentration (pg/ml), Mean [2, 30]: 20376.3 pg/mL
- Leptin Concentration (pg/ml), single replicates [2, 30]: 19789.4 pg/mL and 20963.1 pg/mL
